According to US12336981B2, “Compounds and compositions for the inhibition of NAMPT” (Valo Health, Inc., priority 2010, dated 2025):
Read-outs that look alike come from different tables or passages of the source.

Experiments:
NAMPT = molecular target: T1, NAMPT (Homo sapiens, UniProt P43490); assay: Biochemical inhibition assay: NAMPT enzymatic reaction, NMN quantified by mass spectrometry
T1 construct: His tag; host or cells: E. coli
Outline: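 Inhibition of E. coli-expressed His-tagged human NAMPT, measured as NMN formation by mass spectrometry after a 30 min room-temperature reaction containing 1 μM NAM, 100 μM PRPP and 2.5 mM ATP.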

A2780 cells = assay: In-vitro cell proliferation assay (SRB), A2780 cells; type: cell-based; conditions: Homo sapiens, A2780, 72 h
Outline: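 Proliferation is assessed by sulforhodamine B staining following a 72-hour incubation with compound dilutions containing 0.1% DMSO.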

[1] = NAMPT enzymatic reaction, read-out: Biochem IC50
[2] = A2780 cells, 72 hours, SRB, read-out: A2780 IC50
[3] = NAMPT enzymatic assay, read-out: Biochem IC50
[4] = A2780 cells, 72 hours, SRB assay, read-out: A2780 IC50

T1 sequence (P43490 whole entry): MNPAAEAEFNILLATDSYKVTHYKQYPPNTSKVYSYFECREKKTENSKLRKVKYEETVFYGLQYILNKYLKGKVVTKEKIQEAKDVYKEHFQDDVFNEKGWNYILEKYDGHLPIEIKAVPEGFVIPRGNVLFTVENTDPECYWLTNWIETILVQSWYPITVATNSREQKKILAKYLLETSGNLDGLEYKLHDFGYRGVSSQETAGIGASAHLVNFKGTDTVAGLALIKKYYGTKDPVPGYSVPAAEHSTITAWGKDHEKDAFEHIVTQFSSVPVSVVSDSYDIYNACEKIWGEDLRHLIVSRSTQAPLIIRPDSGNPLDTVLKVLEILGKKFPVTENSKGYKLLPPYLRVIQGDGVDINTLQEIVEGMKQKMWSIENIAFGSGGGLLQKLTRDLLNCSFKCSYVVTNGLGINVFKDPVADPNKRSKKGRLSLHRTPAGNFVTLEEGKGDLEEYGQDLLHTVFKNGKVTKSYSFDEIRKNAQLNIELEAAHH

SMILES | IC50 (NAMPT; [1]) [µM] | IC50 (A2780 cells; [2]) [µM] | IC50 (NAMPT; [3]) [µM] | other results
CCCCOc1ccc(Cl)cc1S(=O)(=O)c1ccc(CNC(=O)c2cnc3[nH]ncc3c2)cc1 [N-({4-[(2-butoxy-5-chlorobenzene)sulfonyl]phenyl}methyl)-1H-pyrazolo[3,4-b]pyridine-5-carboxamide] | 0.117 | 0.0737 | – | –
O=C(NCc1ccc(S(=O)(=O)CCCCc2ccccc2)cc1)c1cc2cnccc2[nH]1 [N-({4-[(4-phenylbutane)sulfonyl]phenyl}methyl)-1H-pyrrolo[3,2-c]pyridine-2-carboxamide] | 0.216 | 0.0715 | – | –
Cc1nc(C)c(S(=O)(=O)c2ccc(CNC(=O)c3ccc4nccn4c3)cc2)s1 [N-{[4-(dimethyl-1,3-thiazole-5-sulfonyl)phenyl]methyl}imidazo[1,2-a]pyridine-6-carboxamide] | – | 0.0037 | 0.009 | –
COc1cccc(S(=O)(=O)c2ccc(CNC(=O)c3ccc4nccn4c3)cc2)c1 [N-({4-[(3-methoxybenzene)sulfonyl]phenyl}methyl)imidazo[1,2-a]pyridine-6-carboxamide] | 0.00497 | 0.00245 | – | –
Cc1cncc(S(=O)(=O)c2ccc(CNC(=O)c3cc4ccncc4o3)cc2)n1 [N-{[4-(6-methylpyrazine-2-sulfonyl)phenyl]methyl}furo[2,3-c]pyridine-2-carboxamide] | – | 0.0097 | 0.0209 | –
O=C(NCc1ccc(S(=O)(=O)c2cccc(OCCN3CCOCC3)c2)cc1)c1ccc2nccn2c1 | – | 0.0034 | 0.0068 | –
CC(C)c1ccc(S(=O)(=O)c2ccc(CNC(=O)c3cc4ccncc4s3)cc2)cc1 [N-[(4-{[4-(propan-2-yl)benzene]sulfonyl}phenyl)methyl]thieno[2,3-c]pyridine-2-carboxamide] | 0.006 | – | – | IC50 (A2780 cells; [4]): 0.0071 µM
Cc1ccc(Cl)c(S(=O)(=O)c2ccc(CNC(=O)c3cc4ccncc4o3)cc2)c1 | 0.0178 | 0.0149 | – | –
O=C(NCc1ccc(S(=O)(=O)c2ccc(-c3ccccc3)cc2)cc1)c1cnc2[nH]ncc2c1 | 0.032 | 0.0117 | – | –
O=C(NCc1ccc(S(=O)(=O)c2ccc3ncccc3c2)cc1)c1cnc2[nH]ncc2c1 [N-{[4-(quinoline-6-sulfonyl)phenyl]methyl}-1H-pyrazolo[3,4-b]pyridine-5-carboxamide] | – | 0.0041 | 0.0101 | –
Cc1cccc(S(=O)(=O)c2ccc(CNC(=O)c3cc4ccncc4s3)cc2)c1 [N-({4-[(3-methylbenzene)sulfonyl]phenyl}methyl)thieno[2,3-c]pyridine-2-carboxamide] | 0.004 | – | – | IC50 (A2780 cells; [4]): 0.0023 µM
Cc1c(Cl)cccc1S(=O)(=O)c1ccc(CNC(=O)c2cc3ccncc3s2)cc1 | – | – | – | IC50 (NAMPT; Biochem IC50 uM): 0.0572 µM; IC50 (A2780 cells; read-out: A2780 IC50 uM): 0.0071 µM
COc1cc(Cl)cc(S(=O)(=O)c2ccc(CNC(=O)c3cc4ccncc4o3)cc2)c1 | 0.0265 | 0.0015 | – | –
Cc1cccc(S(=O)(=O)c2ccc(CNC(=O)c3ccc4nccn4c3)cc2)c1C [N-({4-[(2,3-dimethylbenzene)sulfonyl]phenyl}methyl)imidazo[1,2-a]pyridine-6-carboxamide] | 0.0433 | 0.00985 | – | –
Cc1ccncc1S(=O)(=O)c1ccc(CNC(=O)c2cc3ccncc3s2)cc1 [N-{[4-(4-methylpyridine-3-sulfonyl)phenyl]methyl}thieno[2,3-c]pyridine-2-carboxamide] | – | 0.0225 | 0.0292 | –
CCOCc1ccc(S(=O)(=O)c2ccc(CNC(=O)c3cnc4[nH]ncc4c3)cc2)cc1 [N-[(4-{[4-(ethoxymethyl)benzene]sulfonyl}phenyl)methyl]-1H-pyrazolo[3,4-b]pyridine-5-carboxamide] | – | 0.0128 | 0.0266 | –
O=C(NCc1ccc(S(=O)(=O)c2cccc3c2oc2ccccc23)cc1)c1cc2ccncc2o1 | – | 0.0128 | 0.0124 | –
Cc1ccc(C)c(S(=O)(=O)c2ccc(CNC(=O)c3cc4ccncc4o3)cc2)c1 | 0.0181 | 0.0239 | – | –
O=C(NCc1ccc(S(=O)(=O)c2ccc(C3CCCCC3)cc2)cc1)c1ccc2nccn2c1 | 0.0178 | 0.0117 | – | –
CC(C)NC(=O)c1cccc(S(=O)(=O)c2ccc(CNC(=O)c3cc4ccncc4o3)cc2)c1 | – | 0.0157 | 0.0151 | –
COc1ccc(S(=O)(=O)c2ccc(CNC(=O)c3cc4ccncc4s3)cc2)cc1 [N-({4-[(4-methoxybenzene)sulfonyl]phenyl}methyl)thieno[2,3-c]pyridine-2-carboxamide] | 0.005 | – | – | IC50 (A2780 cells; [4]): 0.0027 µM
O=C(NCc1ccc(S(=O)(=O)c2ccccc2C(F)(F)F)cc1)c1cnc2nccn2c1 | – | 0.1 to 1 | 0.01 | –
O=C(NCc1ccc(S(=O)(=O)c2cccc(C(F)(F)F)c2)cc1)c1cnc2nccn2c1 | – | 0.003 | 0.0027 | –
COc1cc(C)cc(S(=O)(=O)c2ccc(CNC(=O)c3cc4ccncc4o3)cc2)c1 | 0.0022 | 0.0016 | – | –
O=C(NCc1ccc(S(=O)(=O)c2ccc(F)cc2C(F)(F)F)cc1)c1cnc2nccn2c1 | – | 0.1 to 1 | 0.0187 | –

SMILES | IC50 (NAMPT; [1]) [µM] | IC50 (A2780 cells; [2]) [µM] | IC50 (NAMPT; [3]) [µM] | other results
Cn1c(C(=O)NCc2ccc(S(=O)(=O)c3ccccc3)cc2)cc2cnccc21 [N-{[4-(benzenesulfonyl)phenyl]methyl}-1-methyl-1H-pyrrolo[3,2-c]pyridine-2-carboxamide] | > 10 | – | – | IC50 (A2780 cells; [4]): > 30 µM
O=C(NCc1ccc(S(=O)(=O)c2ccc3c(c2)OCO3)cc1)c1cc2cnccc2[nH]1 [N-{[4-(2H-1,3-benzodioxole-5-sulfonyl)phenyl]methyl}-1H-pyrrolo[3,2-c]pyridine-2-carboxamide] | 0.008 | – | – | IC50 (A2780 cells; [4]): 0.007 µM
O=C(NCc1ccc(S(=O)(=O)c2cccc(N3CCOCC3)c2)cc1)c1cnc2nccn2c1 | – | 0.0135 | 0.0027 | –
O=C(NCc1ccc(S(=O)(=O)c2cccc(OCC(F)(F)F)c2)cc1)c1cc2ccncc2o1 [N-[(4-{[3-(2,2,2-trifluoroethoxy)benzene]sulfonyl}phenyl)methyl]furo[2,3-c]pyridine-2-carboxamide] | – | 0.012 | 0.0072 | –
CNC(=O)c1cccc(S(=O)(=O)c2ccc(CNC(=O)c3cc4ccncc4o3)cc2)c1 | – | 0.0143 | 0.0081 | –
O=C(NCc1ccc(S(=O)(=O)c2ccc(Cl)c(Cl)c2)cc1)c1cnc2nccn2c1 | 0.0015 | 0.0017 | – | –
O=C(NCc1ccc(S(=O)(=O)c2ccc(C(F)(F)F)cc2)cc1)c1cc2cnccc2[nH]1 [N-[(4-{[4-(trifluoromethyl)benzene]sulfonyl}phenyl)methyl]-1H-pyrrolo[3,2-c]pyridine-2-carboxamide] | 0.024 | – | – | IC50 (A2780 cells; [4]): 0.026 µM
COc1cc(Cl)cc(S(=O)(=O)c2ccc(CNC(=O)c3cc4ccncc4s3)cc2)c1 | 0.0041 | 0.0011 | – | –
CCCOc1cccc(S(=O)(=O)c2ccc(CNC(=O)c3cc4ccncc4o3)cc2)c1 | 0.0101 | 0.0252 | – | –
Cn1cc(S(=O)(=O)c2ccc(CNC(=O)c3cnc4nccn4c3)cc2)cn1 [N-{[4-(1-methyl-1H-pyrazole-4-sulfonyl)phenyl]methyl}imidazo[1,2-a]pyrimidine-6-carboxamide] | – | 0.1 to 1 | 0.0082 | –
CCCCOc1ccc(Cl)cc1S(=O)(=O)c1ccc(CNC(=O)c2cc3cnccc3[nH]2)cc1 | 0.0156 | 0.0083 | – | –
COc1ccc(S(=O)(=O)c2ccc(CNC(=O)c3ccc4nccn4c3)cc2)c(F)c1 [N-({4-[(2-fluoro-4-methoxybenzene)sulfonyl]phenyl}methyl)imidazo[1,2-a]pyridine-6-carboxamide] | 0.0413 | 0.0229 | – | –
CC(C)CNC(=O)c1cccc(S(=O)(=O)c2ccc(CNC(=O)c3cnc4nccn4c3)cc2)c1 | – | 0.0456 | 0.007 | –
O=C(NCc1ccc(S(=O)(=O)c2ccc(OC(F)(F)F)c(F)c2)cc1)c1cnc2nccn2c1 | – | 0.0118 | 0.004 | –
Cc1ccc(S(=O)(=O)c2ccc(CNC(=O)c3cnc4[nH]ncc4c3)cc2)s1 [N-{[4-(5-methylthiophene-2-sulfonyl)phenyl]methyl}-1H-pyrazolo[3,4-b]pyridine-5-carboxamide] | – | 0.0347 | 0.0223 | –
CCCOc1ccc(Cl)cc1S(=O)(=O)c1ccc(CNC(=O)c2cc3ccncc3s2)cc1 | 0.0057 | 0.0012 | – | –
COc1cc(OC)cc(S(=O)(=O)c2ccc(CNC(=O)c3cnc4nccn4c3)cc2)c1 [N-({4-[(3,5-dimethoxybenzene)sulfonyl]phenyl}methyl)imidazo[1,2-a]pyrimidine-6-carboxamide] | 0.0024 | 0.0016 | – | –
CCCCOc1ccc(S(=O)(=O)c2ccc(CNC(=O)c3cnc4[nH]ncc4c3)cc2)c(C)c1 [N-({4-[(4-butoxy-2-methylbenzene)sulfonyl]phenyl}methyl)-1H-pyrazolo[3,4-b]pyridine-5-carboxamide] | 0.0709 | 0.0688 | – | –
N#Cc1ccccc1S(=O)(=O)c1ccc(CNC(=O)c2cc3ccncc3o2)cc1 [N-({4-[(2-cyanobenzene)sulfonyl]phenyl}methyl)furo[2,3-c]pyridine-2-carboxamide] | 0.0246 | 0.0635 | – | –
COc1c(Cl)ccc(S(=O)(=O)c2ccc(CNC(=O)c3cc4ccncc4s3)cc2)c1Cl | 0.0051 | 0.0067 | – | –
COc1cc(S(=O)(=O)c2ccc(CNC(=O)c3ccc4nccn4c3)cc2)ccc1F | 0.0197 | 0.0067 | – | –
CCS(=O)(=O)c1cccc(S(=O)(=O)c2ccc(CNC(=O)c3cnc4nccn4c3)cc2)c1 | – | 0.0645 | 0.0027 | –
O=C(NCc1ccc(S(=O)(=O)c2ccc(C(F)(F)F)c(Cl)c2)cc1)c1cnc2nccn2c1 | – | 0.0018 | 0.0028 | –
O=C(NCc1ccc(S(=O)(=O)c2cccc(N3CCCC3)c2)cc1)c1cc2cc(O)ccc2[nH]1 | 0.144 | 0.1 to 1 | – | –
